These results are taken from ChEMBL document CHEMBL1141677, “Synthesis and structure-antibacterial activity of triazolyl oxazolidinones containing long chain acyl moiety” (2008).

Holding throughout (format): functional
The test system of one experiment is Moraxella catarrhalis. In words: Antibacterial activity against Moraxella catarrhalis clinical isolate after 18 hrs by agar dilution method. On the technique in general: In agar dilution, organisms are placed on agar that contains the substance at set levels.
For experiment [1], the system named is Staphylococcus aureus. The experiment can be described thus: Antibacterial activity against Staphylococcus aureus ATCC 25923 after 18 hrs by agar dilution method in presence of 50% human plasma. Conditions: ATCC 25923, Plasma.
Experiment [2] relates to Staphylococcus aureus. The experiment can be described thus: Antibacterial activity against methicillin-susceptible Staphylococcus aureus clinical isolate after 18 hrs by agar dilution method.
Another experiment deals with Escherichia coli. The experiment can be described thus: Antibacterial activity against Escherichia coli ATCC 25922 after 18 hrs by agar dilution method. Conditions: ATCC 25922, 18 h.
In experiment [3] the test system is Enterococcus. In words: Antibacterial activity against vancomycin-sensitive Enterococcus after 18 hrs by agar dilution method.
Experiment [4] concerns Staphylococcus aureus. In words: Antibacterial activity against methicillin-resistant Staphylococcus aureus clinical isolate after 18 hrs by agar dilution method. The settings on record: for MIC: Staphylococcus aureus, 18 h.
Another experiment has as its system Streptococcus pneumoniae. In words: Antibacterial activity against penicillin-resistant Streptococcus pneumoniae after 18 hrs by agar dilution method.
The test system of experiment [5] is Staphylococcus aureus. In words: Antibacterial activity against Staphylococcus aureus ATCC 25923 after 18 hrs by agar dilution method. Conditions: for MIC: Staphylococcus aureus, ATCC 25923, 18 h.
Experiment [6] has as its system Staphylococcus. The experiment can be described thus: Antibacterial activity against methicillin-susceptible coagulase-negative Staphylococcus clinical isolate after 18 hrs by agar dilution method.
The test system of experiment [7] is Staphylococcus. The experiment can be described thus: Antibacterial activity against methicillin-resistant coagulase-negative Staphylococcus clinical isolate after 18 hrs by agar dilution method.
In the next experiment the test system is Haemophilus influenzae. In words: Antibacterial activity against Haemophilus influenzae clinical isolate after 18 hrs by agar dilution method.
Experiment [8] concerns Enterococcus. In words: Antibacterial activity against vancomycin-resistant Enterococcus after 18 hrs by agar dilution method.

≈ marks a conversion by molar mass, not a printed value.

Take `O=C1O[C@@H](Cn2ccnn2)CN1c1ccc(N2CCOCC2)c(F)c1`: the MIC is no less than 8 µg/mL in the experiment on Moraxella catarrhalis; 1 µg/mL in the experiment on Staphylococcus aureus [1]; 0.5 µg/mL (≈ 1.44 µM) in the experiment with Staphylococcus aureus [2]; no less than 8 µg/mL against Escherichia coli; 0.5 µg/mL (≈ 1.44 µM) in the experiment with Enterococcus [3]; 0.5 µg/mL (≈ 1.44 µM) with Staphylococcus aureus [4]. Moreover, the MIC was 0.5 µg/mL (≈ 1.44 µM) with Streptococcus pneumoniae; 1 µg/mL (≈ 2.88 µM) with Staphylococcus aureus [5]; 0.5 µg/mL (≈ 1.44 µM) with Staphylococcus [6]; 0.5 µg/mL (≈ 1.44 µM) in the experiment on Staphylococcus [7]; no less than 8 µg/mL in the experiment on Haemophilus influenzae; 1 µg/mL (≈ 2.88 µM) against Enterococcus [8].
Take `O=C(CC1CC2CCC1C2)N1CCN(c2ccc(N3C[C@H](Cn4ccnn4)OC3=O)cc2F)CC1` (some centres not stated): the MIC in the experiment on Moraxella catarrhalis was no less than 8 µg/mL; with Staphylococcus aureus [1], greater than 16 µg/mL; in the experiment on Staphylococcus aureus [2] it was 2 µg/mL (≈ 4.14 µM); against Escherichia coli, no less than 8 µg/mL; in the experiment with Enterococcus [3] it was 2 µg/mL (≈ 4.14 µM); in the experiment with Staphylococcus aureus [4], 2 µg/mL (≈ 4.14 µM). The MIC was 4 µg/mL (≈ 8.29 µM) with Streptococcus pneumoniae; 4 µg/mL (≈ 8.29 µM) against Staphylococcus aureus [5]; 2 µg/mL (≈ 4.14 µM) in the experiment with Staphylococcus [6]; 2 µg/mL (≈ 4.14 µM) in the experiment on Staphylococcus [7]; no less than 8 µg/mL with Haemophilus influenzae; 4 µg/mL (≈ 8.29 µM) against Enterococcus [8]. Besides, the “-logMIC” value in the experiment with Staphylococcus aureus [4] was determined as 2.38; in the experiment with Staphylococcus aureus [5], 2.08.
As to `CCC(=O)N1CCN(c2ccc(N3C[C@H](Cn4ccnn4)OC3=O)cc2F)CC1`, the MIC in the experiment on Moraxella catarrhalis is no less than 8 µg/mL; with Staphylococcus aureus [1] it was 1 µg/mL; in the experiment on Staphylococcus aureus [2], 1 µg/mL (≈ 2.48 µM); with Escherichia coli it was no less than 8 µg/mL; in the experiment with Enterococcus [3], 0.5 µg/mL (≈ 1.24 µM); against Staphylococcus aureus [4], 1 µg/mL (≈ 2.48 µM). Also, the MIC against Streptococcus pneumoniae was 1 µg/mL (≈ 2.48 µM); against Staphylococcus aureus [5] it was 1 µg/mL (≈ 2.48 µM); in the experiment with Staphylococcus [6], 0.12 µg/mL (≈ 0.298 µM); in the experiment with Staphylococcus [7], 1 µg/mL (≈ 2.48 µM); in the experiment with Haemophilus influenzae, no less than 8 µg/mL; in the experiment with Enterococcus [8], 1 µg/mL (≈ 2.48 µM). For the same compound, the “-logMIC” value in the experiment on Staphylococcus aureus [4] and in the experiment with Staphylococcus aureus [5] was 2.6 throughout.
In the case of `CC(=O)N1CCN(c2ccc(N3C[C@H](Cn4ccnn4)OC3=O)cc2F)CC1`, the MIC was no less than 8 µg/mL in the experiment with Moraxella catarrhalis; 1 µg/mL with Staphylococcus aureus [1]; 0.5 µg/mL (≈ 1.29 µM) with Staphylococcus aureus [2]; no less than 8 µg/mL in the experiment with Escherichia coli; 0.5 µg/mL (≈ 1.29 µM) with Enterococcus [3]; 0.25 µg/mL (≈ 0.644 µM) against Staphylococcus aureus [4]. The MIC in the experiment with Streptococcus pneumoniae is 0.5 µg/mL (≈ 1.29 µM); in the experiment on Staphylococcus aureus [5] it was 1 µg/mL (≈ 2.57 µM); in the experiment with Staphylococcus [6], 0.25 µg/mL (≈ 0.644 µM); in the experiment with Staphylococcus [7], 0.25 µg/mL (≈ 0.644 µM); against Haemophilus influenzae, no less than 8 µg/mL; in the experiment with Enterococcus [8], 0.25 µg/mL (≈ 0.644 µM). For the same compound, the entries for the “-logMIC” value with Staphylococcus aureus [4] and in the experiment on Staphylococcus aureus [5] were 3.19 and 2.59, respectively.
Take `CCCCCCCC(=O)N1CCN(c2ccc(N3C[C@H](Cn4ccnn4)OC3=O)cc2F)CC1`: the MIC was no less than 8 µg/mL against Moraxella catarrhalis; greater than 16 µg/mL with Staphylococcus aureus [1]; 4 µg/mL (≈ 8.46 µM) against Staphylococcus aureus [2]; no less than 8 µg/mL in the experiment with Escherichia coli; 4 µg/mL (≈ 8.46 µM) in the experiment with Enterococcus [3]; 2 µg/mL (≈ 4.23 µM) with Staphylococcus aureus [4]. Besides, the MIC in the experiment on Streptococcus pneumoniae was greater than 16 µg/mL; against Staphylococcus aureus [5] it was 8 µg/mL (≈ 16.9 µM); with Staphylococcus [6] it was 2 µg/mL (≈ 4.23 µM); with Staphylococcus [7], 2 µg/mL (≈ 4.23 µM); against Haemophilus influenzae it was no less than 8 µg/mL; against Enterococcus [8] it was 4 µg/mL (≈ 8.46 µM). Also, the “-logMIC” value in the experiment on Staphylococcus aureus [4] is listed as 2.37; in the experiment on Staphylococcus aureus [5], 2.07.
For the compound `CCCCCCC(=O)N1CCN(c2ccc(N3C[C@H](Cn4ccnn4)OC3=O)cc2F)CC1`, the MIC against Moraxella catarrhalis is no less than 8 µg/mL; with Staphylococcus aureus [1], greater than 16 µg/mL; against Staphylococcus aureus [2], 2 µg/mL (≈ 4.36 µM); in the experiment on Escherichia coli it was no less than 8 µg/mL; against Enterococcus [3], 4 µg/mL (≈ 8.72 µM); against Staphylococcus aureus [4] it was 2 µg/mL (≈ 4.36 µM). For the same compound, the MIC was 4 µg/mL (≈ 8.72 µM) in the experiment with Streptococcus pneumoniae; 4 µg/mL (≈ 8.72 µM) in the experiment on Staphylococcus aureus [5]; 1 µg/mL (≈ 2.18 µM) in the experiment on Staphylococcus [6]; 2 µg/mL (≈ 4.36 µM) against Staphylococcus [7]; no less than 8 µg/mL against Haemophilus influenzae; 4 µg/mL (≈ 8.72 µM) in the experiment on Enterococcus [8]. Further, the “-logMIC” value in the experiment with Staphylococcus aureus [4] stood at 2.36; in the experiment on Staphylococcus aureus [5], 2.06.
For `CC(C)C(=O)N1CCN(c2ccc(N3C[C@H](Cn4ccnn4)OC3=O)cc2F)CC1`, the MIC against Moraxella catarrhalis was no less than 8 µg/mL; in the experiment with Staphylococcus aureus [1] it was 2 µg/mL; in the experiment on Staphylococcus aureus [2], 1 µg/mL (≈ 2.4 µM); in the experiment with Escherichia coli, no less than 8 µg/mL; against Enterococcus [3] it was 1 µg/mL (≈ 2.4 µM); against Staphylococcus aureus [4], 1 µg/mL (≈ 2.4 µM). The MIC in the experiment on Streptococcus pneumoniae was 0.5 µg/mL (≈ 1.2 µM); against Staphylococcus aureus [5], 2 µg/mL (≈ 4.8 µM); against Staphylococcus [6], 1 µg/mL (≈ 2.4 µM); in the experiment on Staphylococcus [7] it was 1 µg/mL (≈ 2.4 µM); against Haemophilus influenzae, no less than 8 µg/mL; against Enterococcus [8] it was 1 µg/mL (≈ 2.4 µM). For the same compound, the “-logMIC” value was 2.62 in the experiment on Staphylococcus aureus [4] and 2.32 in the experiment on Staphylococcus aureus [5].
Take `O=C(C1CCCCC1)N1CCN(c2ccc(N3C[C@H](Cn4ccnn4)OC3=O)cc2F)CC1`: the MIC was no less than 8 µg/mL against Moraxella catarrhalis; 4 µg/mL with Staphylococcus aureus [1]; 1 µg/mL (≈ 2.19 µM) against Staphylococcus aureus [2]; no less than 8 µg/mL against Escherichia coli; 1 µg/mL (≈ 2.19 µM) with Enterococcus [3]; 1 µg/mL (≈ 2.19 µM) against Staphylococcus aureus [4]. Moreover, the MIC against Streptococcus pneumoniae is 0.5 µg/mL (≈ 1.1 µM); in the experiment on Staphylococcus aureus [5] it was 4 µg/mL (≈ 8.76 µM); with Staphylococcus [6], 1 µg/mL (≈ 2.19 µM); with Staphylococcus [7] it was 1 µg/mL (≈ 2.19 µM); with Haemophilus influenzae, no less than 8 µg/mL; against Enterococcus [8], 1 µg/mL (≈ 2.19 µM). Further, the “-logMIC” value in the experiment on Staphylococcus aureus [4] was found to be 2.66; in the experiment with Staphylococcus aureus [5], 2.06.
As for `O=C(C1CCCC1)N1CCN(c2ccc(N3C[C@H](Cn4ccnn4)OC3=O)cc2F)CC1`, the MIC in the experiment on Moraxella catarrhalis was no less than 8 µg/mL; in the experiment with Staphylococcus aureus [1], 4 µg/mL; against Staphylococcus aureus [2], 1 µg/mL (≈ 2.26 µM); in the experiment on Escherichia coli, no less than 8 µg/mL; against Enterococcus [3] it was 1 µg/mL (≈ 2.26 µM); against Staphylococcus aureus [4] it was 1 µg/mL (≈ 2.26 µM). The MIC is 1 µg/mL (≈ 2.26 µM) with Streptococcus pneumoniae; 2 µg/mL (≈ 4.52 µM) with Staphylococcus aureus [5]; 1 µg/mL (≈ 2.26 µM) against Staphylococcus [6]; 1 µg/mL (≈ 2.26 µM) against Staphylococcus [7]; no less than 8 µg/mL against Haemophilus influenzae; 1 µg/mL (≈ 2.26 µM) against Enterococcus [8]. Also, the “-logMIC” value in the experiment with Staphylococcus aureus [4] was 2.65; in the experiment on Staphylococcus aureus [5], 2.34.
As for `CCCCCCCCC(=O)N1CCN(c2ccc(N3C[C@H](Cn4ccnn4)OC3=O)cc2F)CC1`, the MIC in the experiment on Moraxella catarrhalis was no less than 8 µg/mL; in the experiment with Staphylococcus aureus [1], greater than 16 µg/mL; in the experiment on Staphylococcus aureus [2], 8 µg/mL (≈ 16.4 µM); in the experiment with Escherichia coli it was no less than 8 µg/mL; against Enterococcus [3] it was 8 µg/mL (≈ 16.4 µM); with Staphylococcus aureus [4] it was 4 µg/mL (≈ 8.22 µM). For the same compound, the MIC against Streptococcus pneumoniae was greater than 16 µg/mL; in the experiment on Staphylococcus aureus [5] it was greater than 16 µg/mL; against Staphylococcus [6] it was 4 µg/mL (≈ 8.22 µM); with Staphylococcus [7], 4 µg/mL (≈ 8.22 µM); against Haemophilus influenzae, no less than 8 µg/mL; against Enterococcus [8], 8 µg/mL (≈ 16.4 µM). Besides, the “-logMIC” value with Staphylococcus aureus [4] worked out at 2.09; with Staphylococcus aureus [5], 1.78.
In the case of `CCCCCC(=O)N1CCN(c2ccc(N3C[C@H](Cn4ccnn4)OC3=O)cc2F)CC1`, the MIC is no less than 8 µg/mL against Moraxella catarrhalis; greater than 16 µg/mL in the experiment with Staphylococcus aureus [1]; 4 µg/mL (≈ 9 µM) against Staphylococcus aureus [2]; no less than 8 µg/mL against Escherichia coli; 4 µg/mL (≈ 9 µM) against Enterococcus [3]; 2 µg/mL (≈ 4.5 µM) against Staphylococcus aureus [4]. The MIC against Streptococcus pneumoniae was 2 µg/mL (≈ 4.5 µM); with Staphylococcus aureus [5], 4 µg/mL (≈ 9 µM); with Staphylococcus [6], 1 µg/mL (≈ 2.25 µM); in the experiment on Staphylococcus [7] it was 1 µg/mL (≈ 2.25 µM); against Haemophilus influenzae, no less than 8 µg/mL; in the experiment with Enterococcus [8], 4 µg/mL (≈ 9 µM). Moreover, the “-logMIC” value in the experiment with Staphylococcus aureus [4] is on record as 2.35; with Staphylococcus aureus [5], 2.05.
